We go through 16 molecules from patent publication US9783499B2, “Quinoline derivatives and their applications” (Shenyang Pharmaceutical University, priority 2012, dated 2017).

Format in all cases: cell-based
Conditions in all cases: 72 hours

The test system of experiment [1] is U87MG (Human malignant glioblastoma cell). Put plainly: In vitro anti-tumor cellular activity (MTT), U87MG. On the procedure:
(§1) After pouring the cell dissociation buffer to the centrifugetube, nutrient solution was added to stop digestion. The centrifugetube were centrifuged for 10 min under 800 r/min, the liquid supernatant was removed, 5 mL culture solution was added, after mixing by pipetting the cell, took 10 μL cell suspension to the cell counting plat, and adjusted the cell concentration to 10^4/well. Among the 96 wells, A1 is empty, 100 μL of cell suspension were added to the other wells. The 96 well plates were incubated in the incubator for 24 h. […] The 96-well plates were placed in an incubator and cultivated for 72 hours. (3) The culture media containing the compounds in the 96-well plates was discarded, and the cells were washed with phosphate buffered solution (PBS) twice. Each well was added with 100 μL MTT (tetrazole) (0.5 mg/mL), and then placed in an incubator to incubate for 4 hours, after which MTT solution was discarded and 100 μL dimethyl sulfoxide was added thereto.

Experiment [2] concerns MDA-MB-231 (human beast cancer cell). The experiment is described as follows: In vitro anti-tumor cellular activity (MTT), MDA-MB-231. On the procedure:
as §1

Experiment [3] deals with HT-29 (colon cancer cell). Put plainly: In vitro anti-tumor cellular activity (MTT), HT-29. How it is done:
as §1

Experiment [4] has as its system SMMC-7721 (hepatoma cell). The experiment is described as follows: In vitro anti-tumor cellular activity (MTT), SMMC-7721. How it is done:
as §1

The test system of experiment [5] is MKN-45 (human gastric carcinoma cell). The experiment is described as follows: In vitro anti-tumor cellular activity (MTT), MKN-45. On the procedure: as §1
The test system of experiment [6] is H460 (human lung cancer cell). Put plainly: In vitro anti-tumor cellular activity (MTT), H460. On the procedure:
as §1

With `COc1cc2c(Oc3ccc(NC(=O)N/N=C/c4ccccc4)cc3F)ccnc2cc1OCCCN1CCN(C)CC1` [Example 4, (E)-N^1-(3-fluoro-4-(6-methoxy-7-(3-(4-methylpiperazin-1-yl)propoxy)quinoline-4-lyoxy)phenyl)-N^4-(benzaldehyde)semicarbazone], the “U87MG IC50” value in experiment [1] worked out at 0.25 mg/L. Moreover, in experiment [2], the “MDA-MB-231 IC50” value was 0.066 mg/L. Moreover, the “HT-29 IC50” value in experiment [3] turned out to be 0.093 mg/L. Also, the “SMMC-7721 IC50” value in experiment [4] worked out at 0.23 mg/L. Also, the “MKN-45 IC50” value in experiment [5] turned out to be 0.11 mg/L. Further, the “H460 IC50” value in experiment [6] came out at 0.084 mg/L.
Consider `N.N.[Cl][Pt][Cl]` [Cisplatin, reference compound], for which, in experiment [1], the “U87MG IC50” value was 0.19 mg/L. For the same molecule, in experiment [2], the “MDA-MB-231 IC50” value was 0.46 mg/L. For the same molecule, the “HT-29 IC50” value in experiment [3] is 1.0 mg/L. In addition, the “SMMC-7721 IC50” value in experiment [4] was 0.90 mg/L. Also, the “MKN-45 IC50” value in experiment [5] is 0.68 mg/L. Moreover, in experiment [6], the “H460 IC50” value was 0.23 mg/L.
For the molecule `COc1cc2c(Oc3ccc(NC(=S)N/N=C/c4ccccc4)cc3F)ccnc2cc1OCCCN1CCN(C)CC1` [Example 39, (E)-N^1-(3-fluoro-4-(6-methoxy-7-(3-(4-methyl-1-piperazinyl)propoxy)quinoline-4-yloxy)phenyl)-N^4-(benzaldehyde)thiosemicarbazone], the “U87MG IC50” value in experiment [1] was 1.6 mg/L. In addition, the “MDA-MB-231 IC50” value in experiment [2] was 0.97 mg/L. Moreover, in experiment [3], the “HT-29 IC50” value was determined as 0.94 mg/L. Further, in experiment [4], the “SMMC-7721 IC50” value turned out to be 1.7 mg/L. Also, in experiment [5], the “MKN-45 IC50” value was 0.59 mg/L. Also, the “H460 IC50” value in experiment [6] was 1.1 mg/L.
For the molecule `COc1cc2c(Oc3ccc(NC(=O)N/N=C/c4ccc(F)cc4)cc3F)ccnc2cc1OCCCN1CCC(C)CC1` [Example 10, (E)-N^1-(3-fluoro-4-(6-methoxy-7-(3-(4-methylpiperidin-1-yl)propoxy)quinoline-4-lyoxy)phenyl)-N^4-(4-fluorobenzaldehyde)semicarbazone], in experiment [1], the “U87MG IC50” value was 0.019 mg/L. In experiment [2], the “MDA-MB-231 IC50” value was found to be 0.011 mg/L. Also, the “HT-29 IC50” value in experiment [3] stood at 0.0015 mg/L. In addition, in experiment [4], the “SMMC-7721 IC50” value came out at 0.16 mg/L. Besides, the “MKN-45 IC50” value in experiment [5] turned out to be 0.038 mg/L. Also, the “H460 IC50” value in experiment [6] amounted to 0.0092 mg/L.
On to `COc1cc2c(Oc3ccc(C=NNC(=S)Nc4ccc(Cl)c(C(F)(F)F)c4)cc3F)ccnc2cc1OCCCN1CCC(C)CC1` [Example 64, (E)-N^1-[4-chloro-3-(trifluoromethyl)phenyl]-N^4-(3-fluoro-4-(6-methoxy-7-(3-(4-methylpiperidin-1-yl)propoxy)quinoline-4-yloxy)benzaldehyde)thiosemicarbazone], for which, in experiment [1], the “U87MG IC50” value came to 1.7 mg/L. Further, in experiment [2], the “MDA-MB-231 IC50” value stood at 0.98 mg/L. Moreover, the “HT-29 IC50” value in experiment [3] was 0.34 mg/L. In addition, in experiment [4], the “SMMC-7721 IC50” value was found to be 1.0 mg/L. Besides, the “MKN-45 IC50” value in experiment [5] worked out at 0.65 mg/L. The “H460 IC50” value in experiment [6] was 0.56 mg/L.
For `COc1cc2c(Oc3ccc(NC(=S)N/N=C/c4ccccc4)cc3F)ccnc2cc1OCCCN1CCOCC1` [Example 38, (E)-N^1-(3-fluoro-4-(6-methoxy-7-(3-(morpholin-4-yl)propoxy)quinoline-4-yloxy)phenyl)-N^4-(benzaldehyde)thiosemicarbazone], the “U87MG IC50” value in experiment [1] worked out at 0.90 mg/L. In experiment [2], the “MDA-MB-231 IC50” value was 0.18 mg/L. For the same molecule, the “HT-29 IC50” value in experiment [3] was found to be 0.28 mg/L. For the same molecule, in experiment [4], the “SMMC-7721 IC50” value amounted to 1.4 mg/L. Besides, in experiment [5], the “MKN-45 IC50” value stood at 0.11 mg/L. The “H460 IC50” value in experiment [6] turned out to be 0.16 mg/L.
Take “(E)-N^1-(3-fluoro-4-(6-methoxy-7-(3-(piperidin-1-yl)propoxy)quinoline-4-yloxy)phenyl)-N^4-(2-chloro-4-fluorobenzaldehyde)thiosemicarbazone [Example 43]”: in experiment [1], the “U87MG IC50” value is 0.092 mg/L. Besides, in experiment [2], the “MDA-MB-231 IC50” value is 0.0029 mg/L. Besides, the “HT-29 IC50” value in experiment [3] came out at 0.0031 mg/L. Moreover, the “SMMC-7721 IC50” value in experiment [4] came out at 0.069 mg/L. Also, the “H460 IC50” value in experiment [6] came to 0.0067 mg/L.
`COc1cc2c(Oc3ccc(/C=N/NC(=S)Nc4cccc(Br)c4)cc3F)ccnc2cc1OCCCN1CCOCC1` [Example 65, (E)-N^1-(3-bromophenyl)-N^4-(3-fluoro-4-(6-methoxy-7-(3-(morpholin-4-yl)propoxy)quinoline-4-yloxy)benzaldehyde)thiosemicarbazone]: the “U87MG IC50” value in experiment [1] was determined as 3.4 mg/L. For the same molecule, the “MDA-MB-231 IC50” value in experiment [2] stood at 2.1 mg/L. In addition, the “HT-29 IC50” value in experiment [3] is 1.9 mg/L. For the same molecule, the “SMMC-7721 IC50” value in experiment [4] amounted to 2.8 mg/L. In experiment [5], the “MKN-45 IC50” value was 4.8 mg/L. In experiment [6], the “H460 IC50” value stood at 2.4 mg/L.
On to `COc1cc2c(Oc3ccc(NC(=O)NN=Cc4ccc(Cl)cc4Cl)cc3F)ccnc2cc1OCCCN1CCOCC1` [Example 20, (E)-N^1-(3-fluoro-4-(6-methoxy-7-(3-(morpholin-4-yl)propoxy)quinoline-4-yloxy)phenyl)-N^4-(2,4-dichlorobenzaldehyde)semicarbazone], for which the “U87MG IC50” value in experiment [1] came to 4.2 mg/L. In experiment [2], the “MDA-MB-231 IC50” value was determined as 1.7 mg/L. Further, in experiment [3], the “HT-29 IC50” value was found to be 0.84 mg/L. Moreover, the “SMMC-7721 IC50” value in experiment [4] came out at 6.7 mg/L. Moreover, the “MKN-45 IC50” value in experiment [5] amounted to 1.5 mg/L. Also, the “H460 IC50” value in experiment [6] turned out to be 1.1 mg/L.
Take `COc1cc2c(Oc3ccc(NC(=O)NN=Cc4ccc(F)cc4Cl)cc3F)ccnc2cc1OCCCN1CCOCC1` [Example 14, (E)-N^1-(3-fluoro-4-(6-methoxy-7-(3-(morpholin-4-yl)propoxy)quinoline-4-yloxy)phenyl)-N^4-(2-chloro-4-fluorobenzaldehyde)semicarbazone]: the “U87MG IC50” value in experiment [1] is 1.4 mg/L. Also, in experiment [2], the “MDA-MB-231 IC50” value is 0.90 mg/L. The “HT-29 IC50” value in experiment [3] turned out to be 0.81 mg/L. Also, the “SMMC-7721 IC50” value in experiment [4] was determined as 1.5 mg/L. In experiment [5], the “MKN-45 IC50” value was found to be 0.65 mg/L. For the same molecule, the “H460 IC50” value in experiment [6] came out at 1.2 mg/L.
For “(E)-N^1-(3,5-dichlorophenyl)-N^4-(3-fluoro-4-(6-methoxy-7-(3-(piperidin-1-yl)propoxy)quinolin-4-yloxy)benzylidene)thiosemicarbazide [Example 61]”, the “U87MG IC50” value in experiment [1] stood at 0.21 mg/L. The “MDA-MB-231 IC50” value in experiment [2] was found to be 0.092 mg/L. In addition, the “HT-29 IC50” value in experiment [3] came out at 0.076 mg/L. The “SMMC-7721 IC50” value in experiment [4] is 0.22 mg/L. The “MKN-45 IC50” value in experiment [5] worked out at 0.15 mg/L. Besides, the “H460 IC50” value in experiment [6] came out at 0.054 mg/L.
With `COc1cc2c(Oc3ccc(NC(=S)N/N=C/c4ccccc4[N+](=O)[O-])cc3F)ccnc2cc1OCCCN1CCCC1` [Example 32], the “U87MG IC50” value in experiment [1] stood at 1.2 mg/L. The “MDA-MB-231 IC50” value in experiment [2] was 0.13 mg/L. For the same molecule, in experiment [3], the “HT-29 IC50” value was 0.24 mg/L. Moreover, the “SMMC-7721 IC50” value in experiment [4] worked out at 0.77 mg/L. Besides, the “MKN-45 IC50” value in experiment [5] is 0.33 mg/L. In experiment [6], the “H460 IC50” value came out at 0.19 mg/L.
As to “(E)-N^1-(3-fluoro-4-(6-methoxy-7-(3-(morpholin-4-yl)propoxy)quinoline-4-oxy)phenyl)-N^4-(3,4-difluorobenzaldehyde)semicarbazone [Example 23]”, in experiment [1], the “U87MG IC50” value worked out at 5.6 mg/L. The “MDA-MB-231 IC50” value in experiment [2] was 2.9 mg/L. For the same molecule, the “SMMC-7721 IC50” value in experiment [4] was 5.9 mg/L. Besides, the “MKN-45 IC50” value in experiment [5] was determined as 5.7 mg/L. The “H460 IC50” value in experiment [6] was 3.6 mg/L.
Take `COc1cc2c(Oc3ccc(NC(=S)NN=Cc4ccc(F)cc4Cl)cc3F)ccnc2cc1OCCCN1CCN(C)CC1` [Example 42, (E)-N^1-(3-fluoro-4-(6-methoxy-7-(3-(4-methyl-1-piperazinyl)propoxy)quinoline-4-yloxy)phenyl)-N^4-(2-chloro-4-fluorobenzaldehyde)thiosemicarbazone]: the “U87MG IC50” value in experiment [1] came out at 1.0 mg/L. Further, in experiment [2], the “MDA-MB-231 IC50” value amounted to 0.29 mg/L. The “SMMC-7721 IC50” value in experiment [4] came to 0.96 mg/L. Moreover, the “MKN-45 IC50” value in experiment [5] was 0.34 mg/L. In addition, the “H460 IC50” value in experiment [6] amounted to 0.38 mg/L.
As to `CCC(=NNC(=O)Nc1ccc(Oc2ccnc3cc(OCCCN4CCCCC4)c(OC)cc23)c(F)c1)c1ccccc1` [Example 30, (E)-N^1-(3-fluoro-4-(6-methoxy-7-(3-(piperidin-1-yl)propoxy)quinoline-4-yloxy)phenyl)-N^4-(propiophenone)thiosemicarbazone], the “U87MG IC50” value in experiment [1] stood at 0.051 mg/L. In addition, the “MDA-MB-231 IC50” value in experiment [2] is 0.0021 mg/L. In addition, the “SMMC-7721 IC50” value in experiment [4] was found to be 0.44 mg/L. Further, the “MKN-45 IC50” value in experiment [5] was found to be 0.0020 mg/L. Moreover, the “H460 IC50” value in experiment [6] is 0.0012 mg/L.
As to `COc1cc2c(Oc3ccc(NC(=S)NN=Cc4ccc(Cl)cc4Cl)cc3F)ccnc2cc1OCCCN1CCN(C)CC1` [Example 40, (E)-N^1-(3-fluoro-4-(6-methoxy-7-(3-(4-methyl-1-piperazinyl)propoxy)quinoline-4-yloxy)phenyl)-N^4-(2,4-dichlorobenzaldehyde)thiosemicarbazone], the “MDA-MB-231 IC50” value in experiment [2] stood at 1.9 mg/L. For the same molecule, the “HT-29 IC50” value in experiment [3] amounted to 1.9 mg/L. Moreover, in experiment [4], the “SMMC-7721 IC50” value stood at 3.1 mg/L. The “MKN-45 IC50” value in experiment [5] amounted to 1.5 mg/L. Also, the “H460 IC50” value in experiment [6] worked out at 2.8 mg/L.
